The source of these data is ChEMBL document CHEMBL1150291, “Discovery of potent, orally bioavailable, selective 5-HT1A/B/D receptor antagonists” (J Med Chem, 2008).

Data set [1] addresses T1, 5-hydroxytryptamine receptor 1D (Homo sapiens, UniProt P28221).
The target of data set [2] is T2, 5-hydroxytryptamine receptor 1B (Homo sapiens, UniProt P28222).
Data set [3] concerns the target T3, 5-hydroxytryptamine receptor 1A (Homo sapiens, UniProt P08908).
T3 sequence (P08908 whole entry): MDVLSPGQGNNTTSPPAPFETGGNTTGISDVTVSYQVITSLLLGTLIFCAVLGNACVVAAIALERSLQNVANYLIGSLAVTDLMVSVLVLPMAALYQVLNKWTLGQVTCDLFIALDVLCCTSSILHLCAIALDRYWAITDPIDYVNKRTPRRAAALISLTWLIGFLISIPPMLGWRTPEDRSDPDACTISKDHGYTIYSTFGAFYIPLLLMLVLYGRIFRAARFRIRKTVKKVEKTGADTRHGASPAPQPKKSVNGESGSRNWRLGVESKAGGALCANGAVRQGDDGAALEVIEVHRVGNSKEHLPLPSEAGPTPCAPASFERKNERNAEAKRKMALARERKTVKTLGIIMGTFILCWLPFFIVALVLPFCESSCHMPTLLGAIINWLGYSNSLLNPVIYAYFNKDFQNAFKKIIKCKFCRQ

The target of data set [4] is T3, 5-hydroxytryptamine receptor 1A. The source holds these as a separate data set.
For data set [5], the target named is Sodium-dependent serotonin transporter (Rattus norvegicus, UniProt P31652).
Sodium-dependent serotonin transporter, sequence (P31652 whole entry): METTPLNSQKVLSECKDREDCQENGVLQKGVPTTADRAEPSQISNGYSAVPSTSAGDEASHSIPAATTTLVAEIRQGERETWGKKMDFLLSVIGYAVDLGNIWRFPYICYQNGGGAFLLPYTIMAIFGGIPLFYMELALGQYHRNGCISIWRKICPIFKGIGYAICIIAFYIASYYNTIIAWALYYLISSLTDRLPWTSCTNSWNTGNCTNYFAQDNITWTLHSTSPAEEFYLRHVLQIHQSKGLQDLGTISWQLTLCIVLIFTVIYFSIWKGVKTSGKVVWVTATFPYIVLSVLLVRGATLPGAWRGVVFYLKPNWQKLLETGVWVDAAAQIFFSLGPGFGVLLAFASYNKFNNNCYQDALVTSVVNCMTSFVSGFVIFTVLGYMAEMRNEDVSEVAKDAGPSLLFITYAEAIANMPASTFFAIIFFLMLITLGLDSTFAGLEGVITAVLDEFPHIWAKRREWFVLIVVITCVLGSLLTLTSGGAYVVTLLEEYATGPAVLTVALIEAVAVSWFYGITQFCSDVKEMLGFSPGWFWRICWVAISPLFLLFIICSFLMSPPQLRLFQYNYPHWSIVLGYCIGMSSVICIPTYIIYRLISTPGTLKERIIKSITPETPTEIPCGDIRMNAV
Description: Inhibition of [3H]5HT uptake at SERT in rat cortical synaptosomes
A short description of data set [6]: Half life in rat at 1 mg/kg, iv. It counts as ADME, organism-based. Also on record: dose 1 mg/kg, route intravenous. To be noted: in vivo.
For data set [7], the target named is T1, 5-hydroxytryptamine receptor 1D. Put plainly: Displacement of [3H]5HT from human recombinant 5HT1D receptor relative to control. (Loss of bound radioactivity is the signal in a displacement assay; it reports binding, not function.)
The target in data set [8] is T2, 5-hydroxytryptamine receptor 1B. The experiment in a line: Displacement of [3H]5HT from human recombinant 5HT1B receptor relative to control.
The nature of data set [9]: Volume of distribution at steady state in rat at 1 mg/kg, iv. It counts as ADME, organism-based. Also on record: dose 1 mg/kg, route intravenous. To be noted: in vivo, read-out: Vdss.
Data set [10] in a line: Clearance in rat at 1 mg/kg, iv. It is filed as ADME, organism-based. Also on record: dose 1 mg/kg, route intravenous. To be noted: in vivo.
Data set [11] is described as follows: Cmax in rat brain at 3 mg/kg, po. It counts as ADME, organism-based. On the set-up: dose 3 mg/kg, route oral.
The nature of data set [12]: Ratio of drug level in brain to blood in rat at 3 mg/kg, po. It counts as ADME, organism-based. To be noted: read-out: BBR. On the set-up: dose 3 mg/kg, route oral.
The test system of a further data set is Rattus norvegicus. The experiment in a line: Reversal of SKF-99101-induced increase in seizure threshold in orally dosed rat by electroshock threshold test. It is filed as functional. To be noted: po.

T2 sequence (P28222 whole entry): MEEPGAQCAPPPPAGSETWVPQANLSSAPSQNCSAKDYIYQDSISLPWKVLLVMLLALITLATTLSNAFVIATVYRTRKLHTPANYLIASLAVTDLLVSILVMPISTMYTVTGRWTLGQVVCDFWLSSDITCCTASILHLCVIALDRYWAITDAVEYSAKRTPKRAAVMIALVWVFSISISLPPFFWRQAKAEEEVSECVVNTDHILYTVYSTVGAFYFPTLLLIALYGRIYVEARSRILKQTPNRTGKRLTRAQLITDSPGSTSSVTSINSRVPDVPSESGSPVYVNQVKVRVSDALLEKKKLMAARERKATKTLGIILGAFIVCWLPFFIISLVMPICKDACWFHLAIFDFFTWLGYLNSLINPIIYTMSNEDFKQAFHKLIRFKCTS
T1 sequence (P28221 whole entry): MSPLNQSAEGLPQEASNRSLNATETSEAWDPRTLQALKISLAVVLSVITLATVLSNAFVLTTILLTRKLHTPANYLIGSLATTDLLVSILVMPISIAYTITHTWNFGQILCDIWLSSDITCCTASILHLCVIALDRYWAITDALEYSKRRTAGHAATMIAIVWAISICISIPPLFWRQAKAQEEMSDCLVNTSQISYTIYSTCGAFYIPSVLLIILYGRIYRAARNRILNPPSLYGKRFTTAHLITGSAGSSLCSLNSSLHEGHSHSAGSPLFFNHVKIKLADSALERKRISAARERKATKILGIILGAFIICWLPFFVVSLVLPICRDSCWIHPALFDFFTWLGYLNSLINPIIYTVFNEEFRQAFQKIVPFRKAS

As to `CC(=O)Nc1cccc(CN2CCN(CCOc3cccc4nc(C)ccc34)CC2)c1`, the Ki (as a rule, the equilibrium dissociation constant of an inhibitor or competing ligand from its target) in data set [1] is 0.000501 µM; in data set [2], 0.02 µM; in data set [3] it was 0.2 µM; in [4], 0.002 µM; in data set [5] it was 1.26 µM.
In the case of `CC(=O)N(C)c1cccc(CC2CCN(CCOc3cccc4nc(C)ccc34)CC2)c1`, in data set [6], the half-life (as a rule, the time needed for the level to fall by half in the phase considered) is 1.2 h. In addition, the Ki is 0.00126 µM in data set [1], 0.0398 µM in [2], 0.0251 µM in data set [3] and 0.0794 µM in [5]. In addition, the Intrinsic activity is 0.6 in [7] and 0.3 in data set [8]. Besides, the Vd in [9] was 2.2 L/kg. Also, the clearance (usually a measure of how efficiently the substance is removed, as volume per time) in data set [10] stood at 2.22 L/h/kg. Also, the Cmax (commonly the peak of the concentration-time curve) in [11] worked out at 190 ng/g.
Turning to `CC(=O)Nc1ccccc1CN1CCN(CCOc2cccc3nc(C)ccc23)CC1`, the inhibitory constant (Ki) in [1] is 0.00501 µM; in data set [2] it was 1.58 µM; in data set [3] it was 1.26 µM; in data set [5] it was 10 µM.
As to `CC(=O)N(C)c1cccc(CN2CCN(CCOc3cccc4nc(C)ccc34)CC2)c1`, the Ki in data set [1] is 0.000316 µM; in data set [2], 0.0501 µM; in [3], 0.251 µM; in data set [5], 1 µM.
With `Cc1ccc2c(OCCN3CCC(Cc4cccc(N5CCCC5=O)c4)CC3)cccc2n1`, the half-life in data set [6] is 1.3 h. For the same compound, the inhibition constant Ki in data set [1] was 0.002 µM; in [2], 0.02 µM; in [3], 0.00631 µM; in data set [5], 0.2 µM. Also, the Kp in data set [12] turned out to be 1.2. The figures for the Intrinsic activity in data set [7] and in data set [8] were 0.5 and 0.4, respectively. In data set [9], the Vd stood at 1.5 L/kg. This compound gave a clearance in data set [10] of 2.1 L/h/kg. The compound also registered a Cmax in [11] of 410 ng/g.
Consider `Cc1ccc2c(OCCN3CCC(Cc4cccc(NS(=O)(=O)C(C)C)c4)CC3)cccc2n1`, for which the Ki in data set [1] was 0.000398 µM; in data set [2] it was 0.00126 µM; in [3], 0.00251 µM; in data set [5], 0.398 µM. Also, the figures for the Intrinsic activity in [7] and in [8] were 0.4 and 0.3, respectively.
Consider `CC(=O)Nc1ccc(CN2CCN(CCOc3cccc4nc(C)ccc34)CC2)cc1`, for which the Ki in data set [1] is 0.2 µM; in data set [2] it was 1.26 µM; in [4] it was 0.158 µM; in data set [5] it was 1.58 µM.
With `CCC(=O)Nc1cccc(CC2CCN(CCOc3cccc4nc(C)ccc34)CC2)c1`, the Ki in data set [1] was 0.000631 µM; in data set [2], 0.0158 µM; in data set [3] it was 0.0251 µM; in data set [5] it was 0.794 µM. In addition, the Intrinsic activity in [7] and in [8] was 0.3 throughout.
In the case of `Cc1nc(-c2ccc(-c3ccc(C(=O)N4CCc5cc6c(cc54)C4(CCN(C)CC4)CO6)cc3)c(C)c2)no1` [SB-224289], the ED50 (usually the dose that gives a 50% effect, or the effect in half of the subjects) in the data set with Rattus norvegicus is 1 mg/kg.
Take `CCNC(=O)Nc1cccc(CC2CCN(CCOc3cccc4nc(C)ccc34)CC2)c1`: the Ki in data set [1] is 0.000251 µM; in data set [2], 0.0251 µM; in data set [3] it was 0.0316 µM; in data set [5], 0.251 µM. For the same compound, the figures for the Intrinsic activity in data set [7] and in data set [8] were 0.3 and 0.2, respectively.
`CC(=O)Nc1cccc(CC2CCN(CCOc3cccc4nc(C)ccc34)CC2)c1` gave a half-life in [6] of 0.6 h. Further, the inhibitory constant (Ki) is 0.000501 µM in [1], 0.02 µM in data set [2], 0.0251 µM in data set [3] and 0.501 µM in [5]. Moreover, in data set [12], the Kp is 1.1. Besides, the values for the Intrinsic activity in data set [7] and in [8] were 0.5 and 0.3, respectively. In addition, in [9], the Vd came out at 1.2 L/kg. Also, the clearance in data set [10] came out at 2.82 L/h/kg. The same compound showed a Cmax in [11] of 221 ng/g.
Turning to `COc1ccc(CN2CCN(CCOc3cccc4nc(C)ccc34)CC2)cc1`, the Ki in data set [1] was 0.0126 µM; in data set [2] it was 0.501 µM; in data set [3] it was 0.0501 µM; in data set [4], 0.00501 µM; in data set [5], 0.398 µM.
With `CCN(C(C)=O)c1cccc(CC2CCN(CCOc3cccc4nc(C)ccc34)CC2)c1`, in data set [6], the half-life is 1.1 h. Besides, the Ki was 0.00158 µM in [1], 0.1 µM in data set [2], 0.00501 µM in data set [3] and 0.794 µM in data set [5]. The Intrinsic activity in [7] stood at 0.6; in [8], 0.3. In data set [9], the Vd was determined as 1.9 L/kg. Besides, the clearance in data set [10] came out at 2.04 L/h/kg. For the same compound, the peak level in [11] (Cmax) was 234 ng/g.
As for `COc1cccc(CN2CCN(CCOc3cccc4nc(C)ccc34)CC2)c1`, the Ki was 0.00251 µM in data set [1], 0.158 µM in [2], 0.0126 µM in [4] and 0.631 µM in data set [5].
Consider `Cc1ccc2c(OCCN3CCC(Cc4cccc(N(C)S(C)(=O)=O)c4)CC3)cccc2n1`, for which the Ki in [1] is 0.00158 µM; in data set [2] it was 0.0126 µM; in [3] it was 0.0126 µM; in data set [5], 1 µM. Also, the Intrinsic activity in data set [7] worked out at 0.5; in data set [8], 0.
`Cc1ccc2c(OCCN3CCC(Cc4cccc(NC(=O)CN(C)C)c4)CC3)cccc2n1`: the inhibition constant (Ki) in data set [1] was 0.001 µM; in data set [2], 0.00631 µM; in data set [3] it was 0.0158 µM; in data set [5], 0.398 µM. Moreover, the Intrinsic activity in data set [7] is 0.4; in data set [8], 0.2.
For `Cc1ccc2c(OCCN3CCN(Cc4ccccc4)CC3)cccc2n1`, the Ki is 0.001 µM in data set [1]; 0.251 µM in data set [2]; 0.2 µM in [3]; 0.0251 µM in data set [4]; 0.794 µM in data set [5].
Regarding `COc1ccc(CC2CCN(CCOc3cccc4nc(C)ccc34)CC2)cc1NS(C)(=O)=O`, the inhibition constant (Ki) in [1] was 0.00631 µM; in [2], 0.0398 µM; in data set [3] it was 0.126 µM; in [5], 0.631 µM.
As for `Cc1ccc2c(OCCN3CCC(Cc4cccc(NC(=O)C(C)C)c4)CC3)cccc2n1`, the half-life in data set [6] is 0.9 h. The Ki in data set [1] was 0.00126 µM; in [2] it was 0.0501 µM; in data set [3], 0.00631 µM; in [5], 0.501 µM. Moreover, the Kp in data set [12] was determined as 2.3. The results for the Intrinsic activity in data set [7] and in [8] were 0.4 and 0.3, respectively. The Vd in data set [9] amounted to 1.8 L/kg. For the same compound, the clearance in data set [10] was 2.7 L/h/kg. The same compound gave a Cmax in data set [11] of 175 ng/g.
